Here are results for six compounds from US5523297A, “Inhibition of excessive phospholipase A2 activity and/or production by non-antimicrobial tetracyclines” (The Research Foundation of State University of New York, priority 1995, dated 1996).

Like-named read-outs stand apart in the source and are kept apart here.

Common to all, as to type: biochemical
For test [1], the target named is T1, porcine pancreatic PLA2 (Sus scrofa, UniProt P00592).
T1 construct: radiolabelled E. coli membrane hydrolysis assay
T1 sequence (P00592 23-146): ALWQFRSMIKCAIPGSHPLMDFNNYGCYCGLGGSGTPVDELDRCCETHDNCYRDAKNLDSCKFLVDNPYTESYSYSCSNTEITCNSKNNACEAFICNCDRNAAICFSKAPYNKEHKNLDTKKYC
In words: Inhibition of porcine pancreatic PLA2, E. coli assay. The method, then:
(§1) Six different chemically-modified tetracyclines, including CMT-1 (4-dedimethylaminotetracycline), CMT-2 (tetracyclinonitrile), CMT-3 (6-demethyl-6-deoxy-4-dedimethylaminotetracycline), CMT-4 (4-de-dimethylamino-7-chloro-tetracycline), CMT-5 (pyrazole analog) and CMT-6 (4-hydroxy-4-dedimethylaminotetracycline), were examined for their ability to inhibit PLA2 activity in vitro. The sources of PLA2 that were tested included recombinant human PLA2, human pancreatic and porcine pancreatic PLA2 and Naja naja PLA2. […] Various concentrations of CMTs, ranging from 5-100 μg/ml, were preincubated with the different PLA2 enzymes for 30 minutes and the mixture was tested for PLA2 activity using a known E. coli assay method (see Arthritis and Rheumatism, 34 Supp. 9: p. S160 (abst C167)).
(§2) A chemically-modified tetracycline, 4-dedimethylamino-7-dimethylaminotetracycline (CMT-10), was examined for its ability to inhibit PLA2 activity in vitro. The sources of PLA2 that were tested included were recombinant human PLA2 (snpPLA2), human pancreatic and porcine pancreatic PLA2 and Naja naja PLA2. […] Various concentrations of CMT-10, ranging from 5-100 μg/ml, were preincubated with the different PLA2 enzymes for 30 minutes and the mixture was tested for PLA2 activity using a known E. coli assay method (see Arthritis and Rheumatism, 34 Supp. 9: p. S160 (abst C167)).
(§3) In particular, [^14 C]Oleic acid-labelled Escherichia coli (strain K12 C600) were used as the substrate. This substrate has been characterized with respect to phospholipid composition and distribution of radiolabel. Reaction mixtures contained 10 mg bovine serum albumin, 2 mM CaCl2, 2.8×10^8 radiolabelled E. coli and 0.1M Tris-HCl buffer, pH 7.5 in a total volume of 1.5 ml. Reaction mixtures were incubated at 37° C. for 30 min. The reaction was terminated by filtration through a 0.45 μm Millipore filter, thereby retaining unhydrolysed E. coli membranes, and allowing the [^14 C]oleic acid bound to the BSA carrier, released as a result of PLA2 hydrolysis, to pass through the filter. Assays were performed in duplicate and values shown represent the mean of two determinations with a SD<5% of the mean. Assays were performed in substrate excess and enzyme activities were corrected for non-enzymatichydrolysis. One unit of PLA2 activity is defined as the hydrolysis of 56 pmol of phospholipid substrate (representing 1% of total E. coli phospholipid) in 30 min at 37° C.

For test [2], the target named is T2, recombinant human PLA2 (snpPLA2) (Homo sapiens, UniProt P14555).
T2 sequence (P14555 21-144): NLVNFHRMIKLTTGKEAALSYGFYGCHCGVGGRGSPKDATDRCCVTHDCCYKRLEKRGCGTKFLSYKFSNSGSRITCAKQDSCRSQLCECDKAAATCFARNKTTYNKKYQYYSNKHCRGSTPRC
In words: Inhibition of recombinant human PLA2, radiolabelled E. coli assay. The protocol:
as §1, §2, §3

For test [3], the target named is T3, human pancreatic PLA2 (Homo sapiens, UniProt P04054).
T3 construct: radiolabelled E. coli membrane hydrolysis assay
T3 sequence (P04054 23-148): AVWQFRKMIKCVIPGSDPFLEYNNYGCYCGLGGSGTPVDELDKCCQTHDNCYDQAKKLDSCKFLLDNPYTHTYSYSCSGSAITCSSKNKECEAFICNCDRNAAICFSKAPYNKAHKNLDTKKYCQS
Briefly: Inhibition of human pancreatic PLA2, E. coli assay. The method, then:
as §1, §2, §3

Where [4] appears, read: concentrations of 25 μg/ml or greater.
Setting [5] is: concentration required to inhibit 50% of PLA2, 30 min preincubation, read-out: IC50 (converted).

As for `CC1(O)c2cccc(O)c2C(=O)C2=C(O)C3(O)C(=O)C(C(N)=O)=C(O)CC3CC21` (centres unmarked) [CMT-1, 4-dedimethylaminotetracycline], in test [1], the “inhibition of porcine pancreatic PLA2” value is “inhibit”. The IC50 in test [2] was 92.2 µM. Moreover, the PLA2-inhibitory activity result in test [2] (setting [4]) is “significant PLA2 -inhibitory activity”. In addition, the “inhibition of human pancreatic PLA2” value in test [3] is “inhibit”.
`CN(C)C1C(=O)C(C#N)=C(O)C2(O)C(=O)C3=C(O)c4c(O)cccc4C(C)(O)C3CC12` (centres unmarked) [CMT-2, tetracyclinonitrile]: the PLA2-inhibitory activity entry in test [2] (even at the highest concentrations tested (range 5-100 μg/ml)) is reported as “lacked any PLA2 -inhibitory activity”.
In the case of `NC(=O)C1=C(O)C2(O)C(=O)C3=C(O)c4c(O)cccc4CC3CC2CC1=O` (centres unmarked) [CMT-3, 6-demethyl-6-deoxy-4-dedimethylaminotetracycline], the “inhibition of porcine pancreatic PLA2” value in test [1] is “inhibit”. Moreover, in test [2] (setting [4]), the PLA2-inhibitory activity entry is “significant PLA2 -inhibitory activity”. Further, the “inhibition of human pancreatic PLA2” value in test [3] is recorded as “inhibit”.
Consider `CC1(O)c2c(Cl)ccc(O)c2C(=O)C2=C(O)C3(O)C(=O)C(C(N)=O)=C(O)CC3CC21` (centres unmarked) [CMT-4, 4-de-dimethylamino-7-chloro-tetracycline], for which the “inhibition of porcine pancreatic PLA2” value in test [1] was “inhibit”. For the same compound, in test [2] (setting [5]), the IC50 is 96.4 µM. In test [2] (setting [4]), the PLA2-inhibitory activity entry is on record as “significant PLA2 -inhibitory activity”. For the same compound, the “inhibition of human pancreatic PLA2” value in test [3] is “inhibit”.
As for `CC1(O)c2cccc(O)c2C(=O)C2=C(O)C3(O)C(=O)C(C(N)=O)=C(O)C(O)C3CC21` (centres unmarked) [CMT-6, 4-hydroxy-4-dedimethylaminotetracycline], in test [1], the “inhibition of porcine pancreatic PLA2” value is reported as “inhibit”. In test [2] (setting [5]), the half-inhibitory concentration (IC50) is 40.7 µM. Besides, in test [2] (setting [4]), the PLA2-inhibitory activity result is given as “significant PLA2 -inhibitory activity”. For the same compound, the “inhibition of human pancreatic PLA2” value in test [3] was “inhibit”.
Regarding `CN(C)c1ccc(O)c2c1C(C)(O)C1CC3CC(O)=C(C(N)=O)C(=O)C3(O)C(O)=C1C2=O` (centres unmarked) [CMT-10, 4-dedimethylamino-7-dimethylaminotetracycline], the inhibition at 5 µg/mL in test [2] (CMT-10 5 μg/ml) is 4 ± 4%. In addition, the inhibition at 10 µg/mL in test [2] (CMT-10 10 μg/ml) amounted to 12 ± 2%. Further, the inhibition at 25 µg/mL in test [2] (CMT-10 25 μg/ml) is 45 ± 1%. For the same compound, the inhibition at 50 µg/mL in test [2] (CMT-10 50 μg/ml) is 75 ± 2%. In addition, the inhibition at 100 µg/mL in test [2] (CMT-10 100 μg/ml) was 87 ± 2%. Also, the half-inhibitory concentration (IC50) in test [2] (setting [5]) is 67.5 µM. The PLA2-inhibitory activity result in test [2] (setting [4]) is reported as “significant PLA2 -inhibitory activity”. Moreover, the “inhibition of PLA2 activity” value in test [2] (final concentration of 5 and 10 μg/ml) is given as “did not exhibit substantial inhibition”. Further, in test [3], the “inhibition of human pancreatic PLA2” value is listed as “inhibit”. In test [3] (concentration of 30 μg/ml), this compound yielded an inhibition at 30 µg/mL of 66%.

The IC50 is the concentration at which inhibition is half-maximal. As usually defined, the inhibition is how much of the control response was suppressed.
